The subject of data set [1] is broiler chickens. Put plainly: Feed complementation for broiler chickens, initial growing cycle, 1 to 21 days (Example 5). In kind it is in vivo. The note with it: 0 to 21 days. From the text:
For this study it was used 336 chickens, males of Cobb lineage 500, received with one day of life. The chickens were housed in 28 cages, with 12 chickens being in each experimental unit. These chickens were submitted to 7 different treatments, each with 4 repetitions, distributed randomly in 7 blocks of 4 experimental units, with two daily observations being made, in order to evaluate the general conditions of the batch, such as temperature, illumination, water, feed and conditions of the bed of each one of the boxes.
The treatments of each batch of chickens were based on a pattern feed. Using this basal feed, the different treatments were developed as follows:
The quantity of formulation applied in the feeds presented as reference the used quantity of butyrates/feed ton, that is, within the interval from 200 g/feed ton to 1.000 g/feed ton.
The results obtained with these different treatments are related in the Table—Average weight, average weight gain, average feed consumption, alimentary conversion and mortality during the experimental period from 0 to 21 days: […]

In data set [2] the test system is broiler chickens. The data set is described as follows: Feed complementation for broiler chickens, whole productive cycle, 1 to 42 days (Example 6). Format: in vivo. The note with it: for Alimentary conversion / Average weight gain (GPM)/chicken / Feed consumption / GPD / % death: 0 to 42 days; for % death: broiler chickens; for Average weight (PM)/chicken, PM2: final weight, 42 days. From the text:
For this study there were used 2.352 chickens, males of the Cobb lineage 500, received with one day of life. The chickens were housed in 42 boxes, with 56 chickens being in each experimental unit. These chickens were submitted to different treatments, distributed randomly in 06 blocks of 07 experimental units, with two daily observations being made, in order to evaluate the general conditions of the batch, such as temperature, illumination, water, feed and conditions of the bed of each one of the boxes.
The treatments of each chicken batch were based on a pattern feed, with the following composition:
From this basal feed, the different treatments were developed as follows:
The results obtained with these different treatments are shown in the Table—Average weight, average weight gain, average feed consumption, alimentary conversion and mortality during the experimental period from 0 to 42 days: […]

As for `CCCC(=O)[O-].[Na+]` [Treatment T2, sodium butyrate], in the data set on broiler chickens [1], the Alimentary conversion is on record as 1.371. In the data set on broiler chickens [1] (broiler chickens), the Accumulated mortality % was determined as 10.41%. Besides, in the data set on broiler chickens [2], the Alimentary conversion was found to be 1.789, the “Average weight gain (GPM)/chicken” value is listed as 2.709 abc kg, the Feed consumption worked out at 5.058 kg and the GPD is 65.5 a g/day. For the same molecule, in the data set with broiler chickens [2], the “% death” value is reported as 6.47% and the “Average weight (PM)/chicken, PM2” value is given as 2.753 abc kg.
Take “calcium butyrate [T3 - Ca, butyrate 45%]”: in the data set on broiler chickens [2], the Alimentary conversion worked out at 1.874, the “Average weight gain (GPM)/chicken” value came out at 2.655 bc kg, the Feed consumption came out at 5.116 kg and the GPD is listed as 64.3 b g/day. Besides, in the data set with broiler chickens [2], the “% death” value is listed as 4.91% and the “Average weight (PM)/chicken, PM2” value turned out to be 2.699 c kg.

(Values after patent publication US20170013861A1, “BIOLOGICAL FORMULATION FOR COMPLEMENTING AN ANIMAL FEED, PROCESS FOR OBTAINING A BIOLOGICAL FORMULATION FOR AN ANIMAL FEED AND AN ANIMAL FEED” (PHB INDUSRIAL S.A., priority 2014, published 2017).)
